From patent US20230265151A1, “GIP/GLP1 CO-AGONIST COMPOUNDS” (priority 2020, published 2023)
Where two headings read alike, the source gives them in different places.

Assays:
[1] = molecular target: T1, human GIP receptor (hGIPR) (Homo sapiens, UniProt P48546); assay: [125I]-GIP binding, SPA with membranes of CHO cells expressing hGIPR
T1 construct: expressed in transfected cells; crude membranes
T1 sequence (P48546 22-466): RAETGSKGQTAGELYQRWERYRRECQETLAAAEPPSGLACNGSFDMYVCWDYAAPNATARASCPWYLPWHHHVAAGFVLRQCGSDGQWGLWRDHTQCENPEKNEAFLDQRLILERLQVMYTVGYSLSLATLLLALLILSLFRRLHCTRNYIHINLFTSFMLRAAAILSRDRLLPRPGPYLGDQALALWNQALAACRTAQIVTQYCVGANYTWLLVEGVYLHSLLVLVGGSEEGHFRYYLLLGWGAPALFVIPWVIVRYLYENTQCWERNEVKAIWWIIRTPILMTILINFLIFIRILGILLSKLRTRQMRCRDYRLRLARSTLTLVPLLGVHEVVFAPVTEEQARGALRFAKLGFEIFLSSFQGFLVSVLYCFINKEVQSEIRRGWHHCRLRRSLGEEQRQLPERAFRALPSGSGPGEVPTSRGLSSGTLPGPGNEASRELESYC

[2] = molecular target: T2, human GLP-1 receptor (hGLP-1R) (Homo sapiens, UniProt P43220); assay: [125I]-GLP-1 binding, SPA with membranes of HEK293 cells expressing hGLP-1R
T2 construct: expressed in transfected cells; crude membranes
T2 sequence (P43220 24-463): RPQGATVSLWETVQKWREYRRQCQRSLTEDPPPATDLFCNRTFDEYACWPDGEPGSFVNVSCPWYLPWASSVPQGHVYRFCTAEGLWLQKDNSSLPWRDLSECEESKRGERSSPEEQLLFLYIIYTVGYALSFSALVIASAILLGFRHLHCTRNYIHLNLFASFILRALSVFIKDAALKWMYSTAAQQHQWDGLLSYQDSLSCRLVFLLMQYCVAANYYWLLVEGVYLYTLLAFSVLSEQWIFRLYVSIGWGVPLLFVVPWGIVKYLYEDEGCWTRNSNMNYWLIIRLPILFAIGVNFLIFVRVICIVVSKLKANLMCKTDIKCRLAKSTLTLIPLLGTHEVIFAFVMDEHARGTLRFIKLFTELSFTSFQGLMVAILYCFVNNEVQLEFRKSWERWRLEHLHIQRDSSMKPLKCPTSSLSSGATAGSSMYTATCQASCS

hGLP-1R = hGLP-1R (Homo sapiens, UniProt P43220); assay: Functional cAMP formation (HTRF) in HEK-293 clonal cells expressing hGLP-1R, 0.1% bovine casein, without or with 1.0% human serum albumin; assay type: cell-based; parameters: expressed in transfected cells; conditions: for Emax: percent of maximal response to GLP-1(7-36)NH2; for EC50: cAMP
hGLP-1R, sequence (P43220 24-463): as above
Summary of the method: (§1)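 Cells were stimulated with peptide for 30 min at 37° C, then intracellular cAMP was measured by competitive HTRF (665/620 nm ratio) and converted to nM using a cAMP standard curve. Relative EC50 and Emax came from four-parameter logistic fits of percent maximal response against peptide concentration.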

hGCGR = molecular target: T3, hGCGR (Homo sapiens, UniProt P47871); assay: Functional cAMP formation (HTRF) in HEK-293 clonal cells expressing hGCGR, 0.1% bovine casein, without or with 1.0% human serum albumin; assay type: cell-based; conditions: cAMP, 37° C.
T3 construct: expressed in transfected cells
T3 sequence (P47871 26-477): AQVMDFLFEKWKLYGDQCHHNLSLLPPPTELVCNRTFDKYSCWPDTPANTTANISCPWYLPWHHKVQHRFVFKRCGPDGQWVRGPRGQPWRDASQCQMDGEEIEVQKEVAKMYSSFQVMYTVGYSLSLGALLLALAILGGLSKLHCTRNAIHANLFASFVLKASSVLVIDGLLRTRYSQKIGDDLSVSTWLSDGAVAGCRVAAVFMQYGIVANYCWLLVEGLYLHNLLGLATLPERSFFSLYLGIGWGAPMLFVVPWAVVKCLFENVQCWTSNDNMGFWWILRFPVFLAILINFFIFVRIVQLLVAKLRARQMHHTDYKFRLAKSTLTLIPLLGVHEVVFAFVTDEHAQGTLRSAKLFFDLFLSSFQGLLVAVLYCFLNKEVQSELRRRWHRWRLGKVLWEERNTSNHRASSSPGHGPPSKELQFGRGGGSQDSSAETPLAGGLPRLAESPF
Summary of the method: as §1

hGIPR = molecular target: T4, hGIPR (Homo sapiens, UniProt P48546); assay: Functional cAMP formation (HTRF) in HEK-293 clonal cells expressing hGIPR, 0.1% bovine casein, without or with 1.0% human serum albumin; assay type: cell-based; conditions: for Emax: percent of maximal response to GIP(1-42)NH2; for EC50: cAMP
T4 construct: expressed in transfected cells
T4 sequence (P48546 22-466): T1 sequence (P48546 22-466)
Summary of the method: as §1

[3] = HEK293, read-out: hGLP-1R Emax, % ± SEM, cAMP, 37° C., 0.1% bovine casein, arithmetic mean
[4] = hGLP-1R EC50, nM (SEM, n), 37° C., 0.1% bovine casein (no human serum albumin), geometric mean
[5] = hGCGR EC50, nM (SEM, n), 0.1% bovine casein (no human serum albumin), geometric mean
[6] = hGCGR EC50, nM (SEM, n), 0.1% bovine casein and 1.0% human serum albumin, geometric mean (SEM, n)
[7] = hGIPR EC50, nM (SEM, n), 37° C., 0.1% bovine casein (no human serum albumin), geometric mean
[8] = hGIPR EC50, nM (SEM, n), 37° C., 0.1% bovine casein and 1.0% human serum albumin, geometric mean (SEM, n)
[9] = human GIPR, geometric mean (SEM, n), read-out: Binding Affinity Ki, nM (SEM, n) hGIPR
[10] = human GLP-1R, geometric mean (SEM, n), read-out: Binding Affinity Ki, nM (SEM, n) hGLP-1R
[11] = HEK293, cAMP, 37° C., 0.1% bovine casein, arithmetic mean, read-out: hGLP-1R Emax, % ± SEM
[12] = 37° C., 0.1% bovine casein (no human serum albumin), geometric mean, read-out: hGLP-1R EC50, nM (SEM, n)
[13] = 0.1% bovine casein (no human serum albumin), geometric mean, read-out: hGCGR EC50, nM (SEM, n)
[14] = 0.1% bovine casein and 1.0% human serum albumin, geometric mean (SEM, n), read-out: hGCGR EC50, nM (SEM, n)
[15] = HEK293, cAMP, 37° C., 0.1% bovine casein and 1.0% human serum albumin, read-out: hGIPR Emax, % ± SEM
[16] = 37° C., 0.1% bovine casein (no human serum albumin), geometric mean, read-out: hGIPR EC50, nM (SEM, n)

`CC[C@H](C)[C@H](NC(=O)[C@H](CC(C)C)NC(=O)[C@](C)(Cc1ccc(O)cc1)NC(=O)[C@H](CCCCNC(=O)COCCOCCNC(=O)CC[C@H](NC(=O)CCCCCCCCCOc1ccc(C(=O)O)cc1)C(=O)O)NC(=O)[C@@H](NC(=O)[C@H](Cc1ccccc1)NC(=O)[C@H](CCCN)NC(=O)C(C)(C)NC(=O)[C@H](CCC(N)=O)NC(=O)[C@H](C)NC(=O)[C@H](CCC(N)=O)NC(=O)[C@H](CCCN)NC(=O)[C@H](CC(=O)O)NC(=O)[C@H](CC(C)C)NC(=O)[C@](C)(CC(C)C)NC(=O)[C@@H](NC(=O)C(C)(C)NC(=O)[C@H](Cc1ccncc1)NC(=O)[C@H](CC(=O)O)NC(=O)[C@H](CO)NC(=O)[C@@H](NC(=O)[C@](C)(Cc1ccccc1F)NC(=O)[C@@H](NC(=O)CNC(=O)[C@H](CCC(=O)O)NC(=O)C(C)(C)NC(=O)[C@@H](N)Cc1ccc(O)cc1)[C@@H](C)O)[C@@H](C)O)[C@@H](C)CC)[C@@H](C)CC)C(=O)N[C@@H](CCCCNC(=O)COCCOCCNC(=O)CC[C@H](NC(=O)CCCCCCCCCOc1ccc(C(=O)O)cc1)C(=O)O)C(=O)NCC(=O)NCC(=O)N1CCC[C@H]1C(=O)N[C@@H](CO)C(=O)N[C@@H](CO)C(=O)NCC(=O)N[C@@H](C)C(=O)N1CCC[C@H]1C(=O)N1CCC[C@H]1C(=O)N1CCC[C@H]1C(=O)N[C@@H](CO)C(N)=O` [Example 463] gave a Ki [1] of 0.0183 nM, a Ki [2] of 0.143 nM and an Emax (hGLP-1R; [3]) of 111%. For the same molecule, the EC50 (hGLP-1R; [4]) was 0.267 nM, the EC50 (hGCGR; [5]) was > 9950 nM and the EC50 (hGCGR; [6]) was > 9950 nM. The Emax (hGIPR; HEK293, read-out: hGIPR Emax, % ± SEM, cAMP, 37° C., 0.1% bovine casein, arithmetic mean) was 91.4%, the EC50 (hGIPR; [7]) was 0.0124 nM and the EC50 (hGIPR; [8]) was 0.35 nM.
`CC[C@H](C)[C@H](NC(=O)[C@H](CC(C)C)NC(=O)[C@](C)(Cc1ccc(O)cc1)NC(=O)[C@H](CCCCNC(=O)CCOCCOCCOCCOCCOCCOCCNC(=O)CC[C@H](NC(=O)CCCCCCCCCCCCC(=O)O)C(=O)O)NC(=O)[C@@H](NC(=O)[C@H](Cc1ccccc1)NC(=O)[C@H](CCCN)NC(=O)C(C)(C)NC(=O)[C@H](CCC(N)=O)NC(=O)[C@H](C)NC(=O)[C@H](CCC(N)=O)NC(=O)[C@H](CCCN)NC(=O)[C@H](CC(=O)O)NC(=O)[C@H](CC(C)C)NC(=O)[C@](C)(CC(C)C)NC(=O)[C@@H](NC(=O)C(C)(C)NC(=O)[C@H](Cc1ccncc1)NC(=O)[C@H](CC(=O)O)NC(=O)[C@H](CO)NC(=O)[C@@H](NC(=O)[C@](C)(Cc1ccccc1F)NC(=O)[C@@H](NC(=O)CNC(=O)[C@H](CCC(=O)O)NC(=O)C(C)(C)NC(=O)[C@@H](N)Cc1ccc(O)cc1)[C@@H](C)O)[C@@H](C)O)[C@@H](C)CC)[C@@H](C)CC)C(=O)N[C@@H](CCCCNC(=O)CCOCCOCCOCCOCCOCCOCCNC(=O)CC[C@H](NC(=O)CCCCCCCCCCCCC(=O)O)C(=O)O)C(=O)NCC(=O)NCC(=O)N1CCC[C@H]1C(=O)N[C@@H](CO)C(=O)N[C@@H](CO)C(=O)NCC(=O)N[C@@H](C)C(=O)N1CCC[C@H]1C(=O)N1CCC[C@H]1C(=O)N1CCC[C@H]1C(=O)N[C@@H](CO)C(N)=O` [Example 466] gave a Ki [1, 9] of 0.0199 nM, a Ki [2, 10] of 0.2 nM and an Emax (hGLP-1R; [11]) of 105%. For the same molecule, the EC50 (hGLP-1R; [12]) was 0.156 nM, the EC50 (hGCGR; [13]) was > 10100 nM and the EC50 (hGCGR; [14]) was > 10100 nM. For the same molecule, the Emax (hGIPR; [15]) was 93.4%, the Emax (hGIPR; HEK293, cAMP, 37° C., 0.1% bovine casein, arithmetic mean, read-out: hGIPR Emax, % ± SEM) was 98.8% and the EC50 (hGIPR; [16]) was 0.00971 nM.
In the case of `CC[C@H](C)[C@H](NC(=O)[C@H](CC(C)C)NC(=O)[C@](C)(Cc1ccc(O)cc1)NC(=O)[C@H](CCCCNC(=O)COCCOCCNC(=O)COCCOCCNC(=O)CC[C@H](NC(=O)CC[C@H](NC(=O)CCCCCCCCCCCCC(=O)O)C(=O)O)C(=O)O)NC(=O)[C@@H](NC(=O)[C@H](Cc1ccccc1)NC(=O)[C@H](CCCN)NC(=O)C(C)(C)NC(=O)[C@H](CCC(N)=O)NC(=O)[C@H](C)NC(=O)[C@H](CCC(N)=O)NC(=O)[C@H](CCCN)NC(=O)[C@H](CC(=O)O)NC(=O)[C@H](CC(C)C)NC(=O)[C@](C)(CC(C)C)NC(=O)[C@@H](NC(=O)C(C)(C)NC(=O)[C@H](Cc1ccncc1)NC(=O)[C@H](CC(=O)O)NC(=O)[C@H](CO)NC(=O)[C@@H](NC(=O)[C@](C)(Cc1ccccc1F)NC(=O)[C@@H](NC(=O)CNC(=O)[C@H](CCC(=O)O)NC(=O)C(C)(C)NC(=O)[C@@H](N)Cc1ccc(O)cc1)[C@@H](C)O)[C@@H](C)O)[C@@H](C)CC)[C@@H](C)CC)C(=O)N[C@@H](CCCCNC(=O)COCCOCCNC(=O)COCCOCCNC(=O)CC[C@H](NC(=O)CC[C@H](NC(=O)CCCCCCCCCCCCC(=O)O)C(=O)O)C(=O)O)C(=O)NCC(=O)NCC(=O)N1CCC[C@H]1C(=O)N[C@@H](CO)C(=O)N[C@@H](CO)C(=O)NCC(=O)N[C@@H](C)C(=O)N1CCC[C@H]1C(=O)N1CCC[C@H]1C(=O)N1CCC[C@H]1C(=O)N[C@@H](CO)C(N)=O` [Example 474], the Ki [1, 9] is reported as 0.0427 nM, the Ki [2, 10] is reported as 0.343 nM and the Emax (hGLP-1R; [11]) is reported as 113%. The EC50 (hGLP-1R; [12]) was 0.123 nM, the EC50 (hGLP-1R; 37° C., 0.1% bovine casein and 1.0% human serum albumin, geometric mean (SEM, n), read-out: hGLP-1R EC50, nM (SEM, n)) was 1.1 nM and the EC50 (hGCGR; [13]) was > 9950 nM. For the same molecule, the EC50 (hGCGR; [14]) was > 9950 nM, the Emax (hGIPR; [15]) was 85.6% and the EC50 (hGIPR; [16]) was 0.0106 nM.
`CC[C@H](C)[C@H](NC(=O)[C@H](CC(C)C)NC(=O)[C@](C)(Cc1ccc(O)cc1)NC(=O)[C@H](CCCCNC(=O)COCCOCCNC(=O)COCCOCCNC(=O)COCCOCCNC(=O)CC[C@H](NC(=O)CCCCCCCCCOc1ccc(C(=O)O)cc1)C(=O)O)NC(=O)[C@@H](NC(=O)[C@H](Cc1ccccc1)NC(=O)[C@H](CCCN)NC(=O)C(C)(C)NC(=O)[C@H](CCC(N)=O)NC(=O)[C@H](C)NC(=O)[C@H](CCC(N)=O)NC(=O)[C@H](CCCN)NC(=O)[C@H](CC(=O)O)NC(=O)[C@H](CC(C)C)NC(=O)[C@](C)(CC(C)C)NC(=O)[C@@H](NC(=O)C(C)(C)NC(=O)[C@H](Cc1ccncc1)NC(=O)[C@H](CC(=O)O)NC(=O)[C@H](CO)NC(=O)[C@@H](NC(=O)[C@](C)(Cc1ccccc1F)NC(=O)[C@@H](NC(=O)CNC(=O)[C@H](CCC(=O)O)NC(=O)C(C)(C)NC(=O)[C@@H](N)Cc1ccc(O)cc1)[C@@H](C)O)[C@@H](C)O)[C@@H](C)CC)[C@@H](C)CC)C(=O)N[C@@H](CCCCNC(=O)COCCOCCNC(=O)COCCOCCNC(=O)COCCOCCNC(=O)CC[C@H](NC(=O)CCCCCCCCCOc1ccc(C(=O)O)cc1)C(=O)O)C(=O)NCC(=O)NCC(=O)N1CCC[C@H]1C(=O)N[C@@H](CO)C(=O)N[C@@H](CO)C(=O)NCC(=O)N[C@@H](C)C(=O)N1CCC[C@H]1C(=O)N1CCC[C@H]1C(=O)N1CCC[C@H]1C(=O)N[C@@H](CO)C(N)=O` [Example 477] showed a Ki [1] of 0.0279 nM, a Ki [2] of 0.143 nM and an Emax (hGLP-1R; HEK293, read-out: hGLP-1R Emax, % ± SEM, cAMP, 37° C., 0.1% bovine casein and 1.0% human serum albumin) of 110%. The Emax (hGLP-1R; [3]) was 110%, the EC50 (hGLP-1R; [4]) was 0.143 nM and the EC50 (hGCGR; [5]) was > 9950 nM. The EC50 (hGCGR; [6]) was > 9950 nM, the Emax (hGIPR; HEK293, read-out: hGIPR Emax, % ± SEM, cAMP, 37° C., 0.1% bovine casein and 1.0% human serum albumin) was 88.1% and the EC50 (hGIPR; [7]) was 0.00861 nM. The EC50 (hGIPR; [8]) was 0.163 nM.
